Reference: patent US5663196A, “Methods for treating neoplastic disorders” (Boston University, priority 1993, dated 1997)
Where two headings read alike, the source gives them in different places.

Columns and labels:
LK lymphoma cells = assay: Trypan Blue cell viability, LK; type: cell-based; settings: Mus musculus, read-out: Trypan Blue Cell Viability (%)
Text: (§1) 1) The Trypan Blue Dye Exclusion Test for monitoring ceil viability as described by Phillips, H. J., in Tissue Culture Methods and Applications; Kruse, P. F., Jr., Patterson, M. K., Eds.; Academic Press, New York, 1973, 406, and by Wu, Y. W., Chik, L. L., Knazek, R. A. Cancer Research 1989, 49, 3754. The results of this assay are expressed as a percentage of viable cells:
(§2) [% viable cells]=[no. of alive cells]/[total no. of cells]×100
(§3) where the total no. cells=dead cells+alive cells. The results are compared directly with an untreated control, which typically show a three-to-four-fold increase for cancer cells, and a two-fold increase for normal cells. Treatments resulting in [% viable cells] of <30% are considered cytotoxic. Therefore, the trypan blue dye exclusion test was used to assess the number of dead and alive cells using various cell lines upon treatment with the crude and purified agent. This test provides a simple clue to the acute or late onset of a cytotoxic response. Readings for this and all other in vitro assays were taken 48 hours after treatment with the unpurified agent, and also […] after treatment for the purified agent. Thus, the trypan blue dye exclusion assay functions to confirm whether or not the cells were viable at the time readings were taken for other bioassays.
With the preferred purified active agent in hand, ^3 H-thymidine incorporation and trypan blue assays were initially performed at different dosages using LK and BW lymphoma ceil lines in order to confirm the activity of the preferred purified active agent, and to bracket the active concentration range for the preferred purified active agent. With a molecular weight of 328, a 1 μg/mL solution corresponds to 3 μM concentration. In addition, the time course of cell viability in the trypan blue assay was also monitored in order to best optimize subsequent assays to ensure that the cells were still viable at the time of measurement, and to ensure a nontoxic response of the cells to the agent. Toxicity of the agent would have been observed as cell death within 2 hours. The trypan blue assays (Table 7), run at 30 μM and 3 μM of purified agent (10 and 1 μg/mL, respectively), indicated excellent cell viability after 24 hours, though with a significant drop in viability after 48 hours at a 30 μM dose of preferred purified active agent. Consequently the results of the in vitro assays employing purified agent were all recorded after 24 hours. In the ^3 H-thymidine incorporation assay (Table 8), dosages ranging from 0.1 to 250 μg/mL were examined.

C7 cloned T-cells = assay: Trypan Blue cell viability, C7; type: cell-based; settings: Mus musculus, read-out: Trypan Blue Cell Viability (%)
Text: as §1, §2, §3
Each of these three fractions were then tested in the trypan blue and ^3 H-thymidine incorporation assays along with the original CsA as a control, against the LS cell line, which was the most sensitive of the cancer lines (Tables 3 and 4). […] The results of the trypan blue and ^3 H-thymidine incorporation assays against the three cell lines are compiled in Tables 5a-5f.

[1] = test system: EL-4 cells (type T lymphoma); assay: 3H-Thymidine Incorporation, EL-4; type: cell-based; settings: Mus musculus, read-out: 3H-Thymidine Incorporation (DNA Synthesis) Inhibition (%)
Text: (§4) 2) The ^3 H-Thymidine Incorporation Test as described by Ju, S. T., Dorf, M. E. J. Immunol. 1985, 134, 3722. This test was used for monitoring cellular proliferation by monitoring DNA synthesis. The results are expressed as percent ^3 H-thymidine incorporation relative to an untreated control:
(§5) [% ^3 H-thymidine incorporation]=[cpm agent treated cells]/[cpm
(§6) where cpm=counts per minute. Treatments resulting in [% ^3 H-thymidine incorporation] of <50% are considered active.
(§7) The ^3 H-thymidine incorporation assay therefore measures the amount of DNA synthesis when the cells are in the "S" phase of the cell cycle, and is used to assess cell proliferation. Cancer cells, which have a very rapid cell cycle turnover, normally incorporate large amounts of tritium (^3 H) unless inhibited by an exogenous agent. […] While the trypan blue dye exclusion test is an indicator of cell death, the ^3 H-thymidine incorporation test indicates a cytostatic status (not necessarily cytotoxic) of the cell. As previously noted, this latter test was the primary screen used to guide the isolation to the active agent.

[2] = test system: CT26 cells (colon adenocarcinoma); assay: 3H-Thymidine Incorporation, CT26; type: cell-based; settings: Mus musculus, read-out: 3H-Thymidine Incorporation (DNA Synthesis) Inhibition (%)
Text: as §4, §5, §6, §7

[3] = test system: CT26 colon adenocarcinoma cells; assay: Lung metastases of CT26 in BALB/C mice, 3rd study; type: in vivo; settings: day 5; 5 μg/g mouse
Procedure: The in vivo activity of the active agent was assessed against two tumor cell types injected into mice: CT26 and Ehrlich Ascites (EAT) tumor cell lines. The protocols of the "National Cancer Institute, Drug Research and Development Division of Cancer Treatment, Instruction 14, Screening Data Summary Interpretation and Outline of Current Screen" were followed.
In a subsequent experiment, mice that had been implanted with CT26 cells as above were treated on day 5 with the solid residue from the evaporation of CsA (100 μg/g mouse), and with the preferred purified active agent 11β,13-dihydrolactucin (5 μg/g mouse).

CC1=C2C(=O)C=C(CO)[C@@H]2[C@H]2OC(=O)[C@@H](C)[C@@H]2[C@@H](O)C1 [11β,13-dihydrolactucin, 3,6-dimethyl-4-hydroxy-9-hydroxymethyl-3,3a,4,5,9a,9b-hexahydroazuleno[4,5-b]furan-2,7-dione] showed a viability at 1 µg/mL (LK lymphoma cells; 2 h) of 100%, a viability at 10 µg/mL (LK lymphoma cells; 2 h) of 100% and a viability at 1 µg/mL (LK lymphoma cells; 5 h) of 100%. It also gave a viability at 10 µg/mL (LK lymphoma cells; 5 h) of 100%, a viability at 1 µg/mL (LK lymphoma cells; 12 h) of 100% and a viability at 10 µg/mL (LK lymphoma cells; 12 h) of 100%. It also gave a viability at 1 µg/mL (LK lymphoma cells; 24 h) of 100%, a viability at 10 µg/mL (LK lymphoma cells; 24 h) of 85% and a viability at 1 µg/mL (LK lymphoma cells; 36 h) of 90%. The viability at 10 µg/mL (LK lymphoma cells; 36 h) was 72%, the viability at 1 µg/mL (LK lymphoma cells; 48 h) was 90% and the viability at 10 µg/mL (LK lymphoma cells; 48 h) was 60%. For the same compound, the viability at 0.1 µg/mL (C7 cloned T-cells) was 100%, the viability at 0.5 µg/mL (C7 cloned T-cells) was 100% and the viability at 1 µg/mL (C7 cloned T-cells) was 100%. The viability at 10 µg/mL (C7 cloned T-cells) was 90%, the inhibition at 0.1 µg/mL ([1]; EL4, 0.1 μg/mL) was 100% and the inhibition at 0.5 µg/mL ([1]; EL4, 0.5 μg/mL) was 100%. The inhibition at 1 µg/mL ([1]; EL4, 1.0 μg/mL) was 78%, the inhibition at 10 µg/mL ([1]; EL4, 10 μg/mL) was 38% and the inhibition at 0.1 µg/mL ([2]; 0.1 μg/mL) was 100%. It also gave an inhibition at 0.5 µg/mL ([2]; 0.5 μg/mL) of 50%, an inhibition at 1 µg/mL ([2]; 1.0 μg/mL) of 5% and an inhibition at 10 µg/mL ([2]; 10 μg/mL) of 1%. For the same compound, the “Number of Metastases (mean ± S.D.)” value [3] was 0.33 ± 0.33.
